The source made the active and inactive calls.
Columns and labels:
Assay type in all cases: functional, organism-based
Escherichia coli = experiment: Antibacterial activity against Escherichia coli O78
Staphylococcus aureus = experiment: Antibacterial activity against Staphylococcus aureus COL
Streptococcus pyogenes = experiment: Antibacterial activity against Streptococcus pyogenes

Measured: Activity

O=C(N[C@H](CO)[C@H](O)c1ccc([N+](=O)[O-])cc1)C(Cl)Cl
active: all assays above

From ChEMBL document CHEMBL1144461, “Targeted drug-carrying bacteriophages as antibacterial nanomedicines” (Antimicrob Agents Chemother, 2007)
